Laboratory results taken from patent US20070265269A1, “Water Soluble Esters of [N-(4-Amino-2-Butynyl)] with Anticancer Activity” (priority 2004, published 2007).

What was measured:
[1] = tested on: Fibroblast (Flow 4000, lung fibroblasts); assay: toxicity on normal cells, tetrazolium-based proliferation assay (EZ4U kit); format: cell-based; conditions: for % Inhibition of growth: concentration of 1:400, normal cells, Flow 4000 lung fibroblasts, 4 days incubation; for toxicity to fibroblasts: result in words
Description: Cells were distributed to the wells of 96 well microtiter plates (10000 cells/well) in tissue culture medium (RPMI-1640 supplemented with 10% fetal bovine serum and 4 mM glutamine) and medium added for controls. Test compounds were added in the reported dilution steps and the plates incubated for 4 days under tissue culture conditions (37° C., 5% CO2).
(§1) Following incubation proliferation was measured using a tetrazolium-based assay (EZ4U kit, Biomedica, Vienna, Austria). Optical densities (OD) of the individual wells was determined with the help of an ELISA-Reader (all values done in triplicate) and the values obtained in medium controls set to 100% (OD490nm=0.5-1.5).
In addition the toxicity of a number of the esters of the invention have been tested on normal cells, Fibroblast (Flow 4000, lung fibroblasts).

[2] = tested on: panel of human tumour cell lines; assay: anti-cancer activity, tetrazolium-based proliferation assay (EZ4U kit) in a panel of tumour cell lines; conditions: result in words
Description: For the following test the following cell lines have been used:
Cell lines. Except indicated otherwise all cell lines were obtained from the American Type Culture Collection (ATCC, Rockville, Md.) and grown to confluent monolayers in RPMI-1640 bicarbonate medium (Seromed, Berlin, Germany) in a humidified incubator (5% CO2, 37° C.). Cells were checked for mycoplasma contamination. The medium was supplemented with 10% heat-inactivated fetal bovine serum (Seromed) and 4 mM glutamine. The cells were subcultured by trypsination (0.03% trypsin containing 0.02% EDTA, three times a week). Cell numbers were counted using a TOA Sysmex microcellcounter (TOA, Tokyo, Japan).
Chemicals and solutions. Unless otherwise mentioned, all chemicals were obtained from Sigma (St. Louis, Mo.). Compounds to be tested were used as supplied. CHP was used as 5 mg/ml stock solution in PBS (phosphate buffered saline, Dulbecco) and aliquots were stored frozen at −20° C. Related compounds were used as 2 mg/ml stock solution and stored frozen at −20° C. […]
as §1, with “(OD490nm=0.5-1.5). […]” for “(OD490nm=0.5-1.5).”

SMILES: CCC(=O)OCC#CCN1CCOCC1 [L15, N-(4-morpholino-2-butynyl)propionate]
- % Inhibition of growth [1]: 13%

SMILES: CC(=O)OCC#CCN(c1ccccc1)c1ccccc1 [L12, N-[4-(N,N-diphenylamino)-2-butynyl]acetate]
- % Inhibition of growth [1]: −7.6%

SMILES: CC(=O)OCC#CCN1CCSCC1 [L13, N-(4-thiomorpholino-2-butynyl)acetate]
- % Inhibition of growth [1]: 19%

SMILES: O=C(OCC#CCN1CCOCC1)c1ccccc1 [L4, N-(4-morpholino-2-butynyl)benzoate]
- % Inhibition of growth [1]: 34.2%

SMILES: CC(=O)OCC#CCN1CCOCC1 [L2, N-(4-morpholino-2-butynyl)acetate]
- % Inhibition of growth [1]: 18%
- toxicity to fibroblasts [1]: low toxicity to fibroblasts
- antitumor activity [2]: highest antitumor activity

SMILES: O=COCC#CCN1CCOCC1 [L6, N-(4-morpholino-2-butynyl)formate]
- % Inhibition of growth [1]: 37.4%

SMILES: CC(C)(C)C(=O)OCC#CCN1CCOCC1 [L18, N-(4-morpholino-2-butynyl)pivalate]
- % Inhibition of growth [1]: 7%
- toxicity to fibroblasts [1]: low toxicity to fibroblasts
- antitumor activity [2]: highest antitumor activity

SMILES: CCN(CC)CC#CCOC(C)=O [L9, N-[4-(N,N-diethylamino)-2-butynyl]acetate]
- % Inhibition of growth [1]: 5.4%
